The values below come from US20230088704A1, “A PHARMACEUTICAL COMBINATION FOR THE TREATMENT OF A CANCER” (ABILITY PHARMACEUTICALS S.L., priority 2020, published 2023).

A word on the IC50: it is the point on the concentration scale where inhibition reaches its midpoint. Read a high IC50 as lower potency.

One experiment concerns MT5 cells. Nature of the experiment: Syngeneic pancreatic cancer model, ABTL0812 vs anti-PD1. In kind it is in vivo, C57BL6 mice. The procedure:
Methods: MT5 cells are a highly tumorigenic murine cell line mutated in KRAS and p53 initially derived from the pancreas of triple transgenic KRAS-p53-Cre (KPC) mice, carrying pancreatic duc-tal adenocarcinoma. […] C57BL6 mice were injected with 2×10^6 MT5 cells in one flank to induce tumor formation. […] The treatment groups were Vehicle, ABTL0812 and anti-PD1. ABTL0812 was administered by the oral route at 480 mg/kg/day. Anti-PD1 antibody was administered i.p. at 200 μg/dose every three days. Tumor volume and body weight were monitored 3 times a week. At the end of the treatments, mice were euthanized, tumors collected and single cell suspension was obtained by digesting tumors using digestion media containing collagenase and lipase and further processing with trypsin and DNAse. Additionally, spleens from treated mice were collected, minced using a strainer, and single cells were obtained after treatment with trypsin and DNAse. After cell suspensions were obtained, cancer cells and immune cells infiltrated withing tumors were stained using specific antibodies against different immune cell subsets and further analyzed using flow cytometry. The combinations used were: Th1 cells=CD45+ CD4+ CCR4− CXCR3+, Th2 cells=CD45+ CD4+ CCR4+ CXCR3−, Myeloid cells=CD45+ CD11b+ Ly6C+ and NKs cells=CD45+ NK1.1+.

The test system of a further experiment is U87MG cells. Nature of the experiment: Human glioblastoma orthotopic xenograft, ABTL0812 with radiotherapy. Type of experiment: in vivo, nude mice. As to the method: Methods: Mice were intra-cerebrally injected with luciferase transfected U87MG cells. Animals were randomized 5 days after cell inoculation and treatments started. ABTL0812 was administered orally at 240 mg/kg 5 days/week and radiotherapy as single dose of 4 Gy administered at day 10.
Tumors were measured by quantification of bioluminescence intensity (BLI) of the region of interest.
For orientation: Xenograft models place foreign cells or tissue in a host animal.

The next experiment deals with MiaPaca2 cells. Briefly: Cytotoxicity against MiaPaca2 cells. Type of experiment: cell-based, human. The following applies: previous results.
In experiment [1] the test system is Human pancreatic cancer cells. Briefly: Secretome of pancreatic cancer cells, chemokine antibody array. In kind it is cell-based. As to conditions: ABTL0812 100 μM; 24 hours. The procedure:
Methods: Human pancreatic cancer cells were treated with ABTL0812 at 100 μM for 24 hours and culture media was collected for its incubation using the RayBio C-Series Human Chemokine Antibody Array C1 (RayBiotec). Culture media was incubated with a membrane containing antibodies against 38 different chemokines. Afterwards, the membrane was incubated with secondary antibodies and further developed using HRP substrate.

A further experiment has as its system PD1. Nature of the experiment: PD1 expression in primary T cells by flow cytometry. In kind it is cell-based, human. The following applies: 6 hours. The procedure: Methods: Human PBMCs were purified from peripheral blood of healthy donors using Ficoll and cultured in vitro. Human T cells were activated by incubation with IL-2 and CD3 and CD28 antibodies for 10 days and then treated with ABTL0812 for 6 hours. Finally, levels of PD1 expressed in the membrane of T cells was analyzed by flow cytometry using specific antibodies. Results are indicated as % of positive cells and show the average of three independent experiments (t-test **p<0.01 and ***p<0.001).
(In general: A flow cytometer gives signals particle by particle.)

The subject of another experiment is JJN-3 cells. Briefly: Cell viability (MTT) and combination index, ABTL0812 with bortezomib. Type of experiment: cell-based. The following applies: ABTL0812 5 μM, Bortezomib 0.5 nM, alone or combined; 48h. The procedure: (§1) Methods: JJN-3 and OPM2 cells were seeded in 24-well plates and treated with ABTL0812 (5 μM), bortezomib (0.5 and 1 nM respectively) or a combination of both drugs and left in the incubator for 48h (0.5% FBS). Cell viability was studied by the MTT assay and combination index was determined to evaluate a possible synergism.
(§2) Cell viability was evaluated in all cases by MTT assay and the Combination Index (CI), to evaluate synergism, was calculated according to the method of Chou and Talalay (Chou 2006; Chou 2010), as follows: CI=(D)1/(Dx)1+(D)2/(Dx)2, where CI<1, =1, and >1 indicate synergism, additive effect, and antagonism, respectively. In the denominator, (Dx)1 is for D1 “alone” that inhibits a system x %, and (Dx)2 is for D2 “alone” that inhibits a system x %.

A further experiment deals with OPM2 cells. Described as above. In kind it is cell-based. The following applies: ABTL0812 5 μM, Bortezomib 1 nM, alone or combined; 48h. As to the method:
as §1, §2

The subject of another experiment is PDL1. Briefly: PDL1 expression in cancer cells by flow cytometry (Example 6.2). In kind it is cell-based, human. As to conditions: ABTL0812 100 μM, 48 hours. As to the method:
Methods: Human cancer cell lines were incubated with 100 μM of ABTL0812 during 48 hours and collected for staining with anti-PDL1 antibody labeled with a fluorophore. After staining of cells with anti-PDL1 antibody, cells were run on Flow Cytometry (Facs Canto) to analyzed PDL1 levels in cancer cells. Additionally, we incubated Panc-1 cells with ABTL0812 (50 μM), IFNγ (2.5 ng/ml), a master regulator of PDL1 expression or a combination with both. Then, cells were collected, stained with anti-PDL1 antibody and analyzed by Flow Cytometry for the expression of PDL1.

The test system of another experiment is Ishikawa cells. Nature of the experiment: Human endometrial cancer xenograft, ABTL0812 with olaparib. Type of experiment: in vivo. The following applies: ABTL0812 oral 120 mg/kg/day; Olaparib oral 50 mg/kg/day. The procedure:
Methods: Mice were injected with 4×10^6 Ishikawa cells in one flank to induce tumor formation. […] Olaparib was administered by the oral route 50 mg/kg/day. Tumor volume and body weight were monitored 3 times a week.

Experiment [2] concerns THP-1 human macrophage cells. Briefly: M1/M2 macrophage polarization, marker mRNA by RT-qPCR. Type of experiment: cell-based. The procedure: Methods: THP-1 monocytes growing in suspension are differentiated to macrophages by incubation with PMA for 24 hours, inducing their attachment to the plates. Once THP-1 are differentiated to macrophages, these are polarized to M1 by incubation with LPS for 6 or 24 hours in the presence of ABTL0812 (50 or 100 μM). In parallel, differentiated macrophages are polarized to M2 by incubation with IL-4 and IL-13 for 24 hours in the presence of ABTL0812 (50 μM). Then, polarized macrophages are lysed, total RNA extracted, retrotranscribed to cDNA and mRNA levels of IL1β, TNFα (M1 markers) and […] (M2 marker) were evaluated by RT-qPCR using specific probes.
(Quantitative PCR measures a nucleic acid by following its amplification.)

Where [3] appears, read: macrophages polarized to M1 (LPS 6 or 24 hours), ABTL0812 50 or 100 μM.

Regarding `CCCCC/C=C\C/C=C\CCCCCCC(O)C(=O)O` (stereo not shown) [ABTL0812, COOH—CHOH—(CH2)6—(CH═CH—CH2)2—(CH2)3—CH3], the tumor volume result in the experiment with MT5 cells (ABTL0812 oral 480 mg/kg/day, anti-PD1 i.p. 200 μg/dose every three days) is recorded as “significantly decreasing tumor volume compared with vehicle treatment group”; in the experiment with Ishikawa cells, “significantly reduced tumor volume”. The “Th1/Th2 ratio in spleen” value in the experiment on MT5 cells (flow cytometry) is reported as “increase in the Th1/Th2 ratio”. Moreover, in the experiment on MT5 cells (flow cytometry, CD45+ CD11b+ Ly6C+), the “Myeloid cells within tumors” value was “increase of Myeloid cells within tumors”. Moreover, in the experiment with MT5 cells (flow cytometry, CD45+ NK1.1+), the “percentage of NK cells within tumor” value is “increase in the percentage of NK cells within tumor”. In addition, the “disease-free survival, single agent” value with U87MG cells (ABTL0812 oral 240 mg/kg 5 days/week) is recorded as “significantly increased the disease-free survival”. Also, the “disease-free survival, combination with radiotherapy” value in the experiment on U87MG cells (ABTL0812 oral 240 mg/kg 5 days/week + radiotherapy single dose 4 Gy at day 10) is given as “significantly more efficacious than the single treatments”. In the experiment on MiaPaca2 cells, this compound gave a half-maximal inhibitory concentration (IC50) of 50 µM. In addition, the “secreted CCL5” value in experiment [1] is “decrease”. The “secreted CXCL6” value in experiment [1] is “decrease”. Also, in experiment [1], the “secreted CXCL16” value is given as “decrease”. Further, the secreted angiogenin entry in experiment [1] is reported as “decrease”. Also, the PD1 expression entry in the experiment on PD1 (activated (IL-2, CD3 and CD28 antibodies) human primary CD4 and CD8 T lymphocytes) is “induces the inhibition of PD1 expression”; in the experiment on PD1 (non-activated human primary CD4 and CD8 T lymphocytes), “induces the inhibition of PD1 expression”. The cell death result in the experiment on JJN-3 cells is “around 10%”; with OPM2 cells, “around 20%”. The “PDL1 expression, increase from basal levels” value in the experiment with PDL1 (Capan-2 cells) was found to be 86%; with PDL1 (MiaPaca2 cells) it was 34%. Further, the “expression of IL-1β” value in experiment [2] (differentiated macrophages without polarizing, ABTL0812 alone) is recorded as “significantly induce the expression of IL-1β”. Besides, the “IL-1β mRNA levels” value in experiment [2] (setting [3]) was “significantly potentiates”. Besides, in experiment [2] (setting [3]), the “TNFα mRNA levels” value is listed as “significantly potentiates”. The “IL-10 mRNA levels” value in experiment [2] (macrophages polarized to M2 (IL-4 and IL-13, 24 hours), ABTL0812 50 μM) was “significantly suppresses”.
